Measurements from patent publication US10681909B2, “Herbicidal triazoles” (FMC Corporation, priority 2014, dated 2020).

Assays:
windgrass [1] = assay: Test D postemergence; assay type: in vivo, Apera spica-venti; settings: scale 0 to 100
Text: (§1) Seeds of plant species selected from bluegrass (annual bluegrass, Poa annua), blackgrass (Alopecurus myosuroides), canarygrass (Phalaris minor), chickweed (common chickweed, Stellaria media), galium (catchweed bedstraw, Galium aparine), bromegrass, down (downy bromegrass, Bromus tectorum), Russian thistle (Salsola kali), field poppy (Papaver rhoeas), field violet (Viola arvensis), foxtail, green (green foxtail, Setaria viridis), deadnettle (henbit deadnettle, Lamium amplexicaule), ryegrass, Ital. (Italian ryegrass, Lolium multiflorum), kochia (Kochia scoparia), lambsquarters (Chenopodium album), oilseed rape (Brassica napus), pigweed (Amaranthus retroflexus), chamomile (scentless chamomile, Matricaria inodora), speedwell (bird's-eye speedwell, Veronica persica), barley, spring (spring barley, Hordeum vulgare), wheat, spring (spring wheat, Triticum aestivum), buckwheat, wild (wild buckwheat, Polygonum convolvulus), wild mustard (Sinapis arvensis), oat, wild (wild oat, Avena fatua), radish, wild (wild radish, Raphanus raphanistrum), […]), barley, winter (winter barley, Hordeum vulgare), and wheat, winter (winter wheat, Triticum aestivum) were planted into a silt loam soil and treated preemergence with test chemicals formulated in a non-phytotoxic solvent mixture which included a surfactant. At the same time, these species were planted in pots containing Sunshine Redi-Earth® planting medium comprising spaghnum peat moss, vermiculite, starter nutrients and dolomitic limestone and treated with postemergence applications of the test chemicals formulated in the same manner. Plants ranged in height from 2 to 18 cm (1- to 4-leaf stage). Treated plants and controls were maintained in a controlled growth environment for 14 to 21 d after which time all species were compared to controls and visually evaluated. […] A dash (-) response means no test result.

ryegrass, Ital. = assay: Test D postemergence; assay type: in vivo, Lolium multiflorum; settings: scale 0 to 100
Text: as §1

buckwheat, wild = assay: Test D preemergence; assay type: in vivo, Polygonum convolvulus; settings: scale 0 to 100
Text: as §1

soybean = assay: Test C preemergence; assay type: in vivo, Glycine max; settings: for Soybean plant response rating (0 to 100): Preemergence, visual rating after 13 to 15 d
Text: (§2) Seeds of plant species selected from blackgrass (Alopecurus myosuroides), ryegrass, Italian (Italian ryegrass, Lolium multiflorum), wheat (winter wheat, Triticum aestivum), galium (catchweed bedstraw, Galium aparine), corn (Zea mays), crabgrass, large (large crabgrass, Digitaria sanguinalis), foxtail, giant, (giant foxtail, Setaria faberii), johnsongrass (Sorghum halepense), lambsquarters (Chenopodium album), morningglory (Ipomoea coccinea), nutsedge, yellow (yellow nutsedge, Cyperus esculentus), pigweed (Amaranthus retroflexus), ragweed (common ragweed, Ambrosia elatior), soybean (Glycine max), barnyardgrass (Echinochloa crus-galli), oilseed rape (Brassica napus), waterhemp (common waterhemp, Amaranthus rudis), and velvetleaf (Abutilon theophrasti) were planted into a blend of loam soil and sand and treated preemergence with test chemicals formulated in a non-phytotoxic solvent mixture which included a surfactant. At the same time, plants selected from these crop and weed species and also chickweed (common chickweed, Stellaria media), oat, wild (wild oat, Avena fatua), and kochia (Kochia scoparia), were planted in pots containing Sunshine Redi-Earth® planting medium comprising spaghnum peat moss, vermiculite, starter nutrients and dolomitic limestone and treated with postemergence applications of test chemicals formulated in the same manner. Plants ranged in height from 2 to 18 cm (1- to 4-leaf stage) for postemergence treatments. […] A dash (-) response means no test result.

waterhemp = assay: Test C preemergence; assay type: in vivo, Amaranthus rudis; settings: for Waterhemp plant response rating (0 to 100): Preemergence, visual rating after 13 to 15 d
Text: as §2

deadnettle = assay: Test D preemergence; assay type: in vivo, Lamium amplexicaule; settings: scale 0 to 100
Text: as §1

field violet = assay: Test D postemergence; assay type: in vivo, Viola arvensis; settings: scale 0 to 100
Text: as §1

ryegrass, Italian = assay: Test C preemergence; assay type: in vivo, Lolium multiflorum; settings: for Ryegrass, Italian plant response rating (0 to 100): Preemergence, visual rating after 13 to 15 d; for Plant response rating (scale of 0 to 100 where 0 is no effect and 100 is complete control): Ryegrass, Italian, preemergence
Text: as §2

corn = assay: Test C preemergence; assay type: in vivo, Zea mays; settings: for Plant response rating (scale of 0 to 100 where 0 is no effect and 100 is complete control): Corn, preemergence; for Corn plant response rating (0 to 100): Preemergence, visual rating after 13 to 15 d
Text: as §2

windgrass [2] = assay: Test D preemergence; assay type: in vivo, Apera spica-venti; settings: scale 0 to 100
Text: as §1

wild mustard = assay: Test D postemergence; assay type: in vivo, Sinapis arvensis; settings: scale 0 to 100
Text: as §1

In the case of `CCOc1nc(-c2ccc(F)cc2)nn1Cc1ccnc(C(F)(F)F)c1` [Compound 8, 4-[[5-ethoxy-3-(4-fluorophenyl)-1H-1,2,4-triazol-1-yl]methyl]-2-(trifluoromethyl)pyridine], the “Plant response rating: Windgrass” value (windgrass [1]; 31 g ai/ha) is reported as 40, the “Plant response rating: Windgrass” value (windgrass [1]; 62 g ai/ha) is reported as 60 and the “Plant response rating: Windgrass” value (windgrass [1]; 125 g ai/ha) is reported as 75. The “Plant response rating: Windgrass” value (windgrass [1]; 250 g ai/ha) was 85, the “Plant response rating: Ryegrass, Ital.” value (ryegrass, Ital.; 31 g ai/ha) was 35 and the “Plant response rating: Ryegrass, Ital.” value (ryegrass, Ital.; 62 g ai/ha) was 35. For the same compound, the “Plant response rating: Ryegrass, Ital.” value (ryegrass, Ital.; 125 g ai/ha) was 55, the “Plant response rating: Ryegrass, Ital.” value (ryegrass, Ital.; 250 g ai/ha) was 55 and the “Plant response rating: Buckwheat, Wild” value (buckwheat, wild; 31 g ai/ha) was 35. For the same compound, the “Plant response rating: Buckwheat, Wild” value (buckwheat, wild; 62 g ai/ha) was 100, the “Plant response rating: Buckwheat, Wild” value (buckwheat, wild; 125 g ai/ha) was 100 and the “Plant response rating: Buckwheat, Wild” value (buckwheat, wild; 250 g ai/ha) was 100. The “Soybean plant response rating (0 to 100)” value (soybean; 31 g ai/ha) was 15, the “Soybean plant response rating (0 to 100)” value (soybean; 62 g ai/ha) was 35 and the “Plant response rating (scale of 0 to 100 where 0 is no effect and 100 is complete control)” value (soybean; Soybean, preemergence, 250 g ai/ha) was 75. For the same compound, the “Waterhemp plant response rating (0 to 100)” value (waterhemp; 31 g ai/ha) was 98, the “Waterhemp plant response rating (0 to 100)” value (waterhemp; 62 g ai/ha) was 100 and the “Plant response rating (scale of 0 to 100 where 0 is no effect and 100 is complete control)” value (waterhemp; Waterhemp, preemergence, 250 g ai/ha) was 100. For the same compound, the “Plant response rating: Deadnettle” value (deadnettle; 31 g ai/ha) was 100, the “Plant response rating: Deadnettle” value (deadnettle; 62 g ai/ha) was 100 and the “Plant response rating: Deadnettle” value (deadnettle; 125 g ai/ha) was 100. For the same compound, the “Plant response rating: Deadnettle” value (deadnettle; 250 g ai/ha) was 100, the “Plant response rating: Field Violet” value (field violet; 31 g ai/ha) was 70 and the “Plant response rating: Field Violet” value (field violet; 62 g ai/ha) was 75. The “Plant response rating: Field Violet” value (field violet; 125 g ai/ha) was 90, the “Plant response rating: Field Violet” value (field violet; 250 g ai/ha) was 100 and the “Ryegrass, Italian plant response rating (0 to 100)” value (ryegrass, Italian; 31 g ai/ha) was 50. The “Ryegrass, Italian plant response rating (0 to 100)” value (ryegrass, Italian; 62 g ai/ha) was 80, the “Plant response rating (scale of 0 to 100 where 0 is no effect and 100 is complete control)” value (ryegrass, Italian; 125 g ai/ha) was 90 and the “Plant response rating (scale of 0 to 100 where 0 is no effect and 100 is complete control)” value (ryegrass, Italian; 250 g ai/ha) was 90. The “Plant response rating (scale of 0 to 100 where 0 is no effect and 100 is complete control)” value (corn; 125 g ai/ha) was 65, the “Plant response rating (scale of 0 to 100 where 0 is no effect and 100 is complete control)” value (corn; 250 g ai/ha) was 65 and the “Corn plant response rating (0 to 100)” value (corn; 31 g ai/ha) was 35. The “Corn plant response rating (0 to 100)” value (corn; 62 g ai/ha) was 55, the “Plant response rating: Windgrass” value (windgrass [2]; 62 g ai/ha) was 90 and the “Plant response rating: Windgrass” value (windgrass [2]; 125 g ai/ha) was 100. For the same compound, the “Plant response rating: Windgrass” value (windgrass [2]; 250 g ai/ha) was 100, the “Plant response rating: Mustard, Wild” value (wild mustard; 31 g ai/ha) was 100 and the “Plant response rating: Mustard, Wild” value (wild mustard; 62 g ai/ha) was 100. The “Plant response rating: Mustard, Wild” value (wild mustard; 125 g ai/ha) was 100 and the “Plant response rating: Mustard, Wild” value (wild mustard; 250 g ai/ha) was 100.
